These results are taken from PMC9026172, “Pharmacodynamics, Network Pharmacology, and Pharmacokinetics of Chinese Medicine Formula 9002A in the Treatment of Alzheimer’s Disease” (Frontiers in Pharmacology, 2022).

The test system of data set [1] is 3xTg AD mice. Details: method as in Liu et al., 2013. As to conditions: after 8 months of treatment; ref Liu et al., 2013; cited from earlier work.
The test system of data set [2] is Aβ deposition and glial cell activation in the brain. Details: method as in Hu et al. (2014). As to conditions: transgenic mice; ref Hu et al. (2014); cited from earlier work.
A short description of data set [3]: Absorbed constituents and pharmacokinetics in rat plasma after Formula 9002A (UPLC-QTof-MS). As to conditions: for half-life: SD, rat; for Fold increase of mean residence time after Formula 9002A vs monomer: vs administration of a monomer; for Fold increase of half-life after Formula 9002A vs monomer: vs intragastric or intravenous monomer from literature.
Protocol: The supernatant were obtained and concentrated, then dissolved with 50% methanol–water at 4°C for LC-MS/MS analysis.
Waters Xevo G2-XS QTof-MS and Masslynx software were used to acquire LC-MS/MS raw data. Chromatographic separation on the Waters Acquity UPLC HSS T3 column was performed on the samples. The mobile phases consisted of (A) 0.1% formic acid in water and (B) acetonitrile. […] The flow rate was set at 0.3 ml/min. The temperatures of the column and the auto sampler were maintained at 40 and 4°C, respectively. The injection volume was 5 μl.
MS conditions: positive and negative ion electrospray modes were both used. Capillary voltages were set at 3 kV for the positive mode and 2.5 kV for the negative mode. Source temperature was set as 100 °C. Nitrogen was used as the nebulizer and auxiliary gas; flow rates and temperature of desolvation gas were 1,000 L/h and 400°C, respectively. The range of data acquisition was from 50 to 1,000 m/z, and the scan time was set to 0.2 s. MS^E analysis was performed with 6 eV for the low collision energy scan and 35 eV for the high collision energy scan.
The absorbed components were identified by the exact molecular mass, molecular formula, and MS^2 fragment data compared with the standard substances and literature data. The DAS 3.3.0 software was used for calculating the terminal elimination half-life (t1/2) and mean residence time (MRT).
Data set [4] deals with Nrf2 and HO-1. Details: method as in Hindam et al., 2014. As to conditions: streptozotocin-induced cognitive dysfunction; ref Hindam et al., 2014; cited from earlier work.
Data set [5] relates to tight junction proteins (such as claudin-5 and occludin). Details: method as in Gibson et al., 2014. As to conditions: by inhibiting the activation of MMP-9; ref Gibson et al., 2014; cited from earlier work.
On the set-up of data set [6]: method as in Naseri-Nosar and Ziora, 2018. As to conditions: ref Naseri-Nosar and Ziora, 2018, cited from earlier work.

Where two headings read alike, the source gives them in different places.

On to `NC(=O)c1cccnc1` [niacinamide], for which the Cognitive function result in data set [1] is reported as “could be improved”.

Usually half-life stands for the time needed for the level to fall by half in the phase considered. In the case of `OCc1ccc(O[C@@H]2O[C@H](CO)[C@@H](O)[C@H](O)[C@H]2O)cc1` [gastrodin], in data set [2], the “Aβ deposition and glial cell activation in the brain” value is “significantly reduce Aβ deposition and glial cell activation”. The compound further showed a half-life in data set [3] (in vivo) of 2.58 h. In data set [3] (plasma), the “Fold increase of mean residence time after Formula 9002A vs monomer” value was ~2 fold and the “Fold increase of half-life after Formula 9002A vs monomer” value is ~2 fold.

For the compound `O=c1ccc2ccc(O)cc2o1` [umbelliferone], the “Content of Nrf2 and HO-1” value in data set [4] is given as “significantly increase”.

With `OC[C@H]1O[C@@H](OCCc2ccc(O)cc2)[C@H](O)[C@@H](O)[C@@H]1O` [salidroside], the “Tight junction proteins / BBB damage” value in data set [5] is “reversed the decrease in tight junction proteins”. In addition, the half-life in data set [6] (gavage of salidroside monomer) is on record as 0.64 h. For the same compound, the half-life in data set [6] (intravenous injection of salidroside monomer) is 1.16 h. Moreover, in data set [3] (plasma), the half-life is 2.12 h, the “Fold increase of mean residence time after Formula 9002A vs monomer” value is reported as ~2 fold and the “Fold increase of half-life after Formula 9002A vs monomer” value is recorded as 2- to 3 fold.
